Experimental data: patent US20240381868A1, “AGED AQUEOUS ANTIMICROBIAL COMPOSITION” (EVONIK CORPORATION, priority 2021, published 2024)

Tests used:
[1] = Formation and stability of other peracids at room temperature (titration); format: physicochemical
Experimental: (§1) The concentrations of formed peracids and hydrogen peroxide were monitored by titration on an auto-titrator and by using Chemetrics test kits K7913F and K-5543.
Various other peracids were also prepared using corresponding organic acid precursors and hydrogen peroxide as described in the Example 1. Only the acids with low or no odor were used in the experiment. The solutions were kept at room temperature and periodically tested for the concentration of the components using an auto-titrator and standard titration methods.

[2] = Formation and stability of peroxycitric acid solutions at room temperature (titration); format: physicochemical; conditions: H2SO4 catalyst
Experimental: as §1
Two solutions were prepared using solid citric acid (47.9 wt %), 70 wt % hydrogen peroxide (21.8 wt %) and the rest DI water. 0.6 wt % Dequest 2010 stabilizer was added to both solutions. To the first solution (PCA-1), 4.9 wt % concentrated sulfuric acid was added as a catalyst. To the second solution (PCA-2), 0.6 wt % of sulfuric acid was added. Both solutions were kept at room temperature and periodically tested for the concentration of the components using an auto-titrator and standard titration methods.

Row | Molecule | Peracid Concentration ([1]; 1 day) [mol/kg] | Peracid Concentration ([1]; 3 days) [mol/kg] | Peracid Concentration ([1]; 7 days) [mol/kg] | Peracid Concentration ([1]; 14 days) [mol/kg] | Peracid Concentration ([1]; 22 days) [mol/kg] | max peracid concentration formed [1] [wt %] | time for which peracid was stable [1] | Peracid Concentration ([1]; 78 days) [mol/kg] | concentration of peracid formed [1] [wt %] | time to reach maximum concentration of PCA [2] [days]
1 | O=C(O)CCCC(=O)OO [Peroxyglutaric, perglutaric acid] | 0.993 | 1.189 | 1.081 | 0.986 | 0.919 |  |  |  |  | 
2 | O=C(O)/C=C\C(=O)OO [Peroxymaleic, Permaleic acid] | 0.235 |  | 0.386 | 0.379 | 0.348 | 5.1 | at least 78 days | 0.318 |  | 
3 | O=C(O)CC(=O)OO [Peroxymalonic, permalonic acid] |  | 0.442 | 0.200 | 0.083 |  |  |  |  |  | 
4 | O=C(O)C(=O)OO [Peroxyoxalic, peroxalic acid] |  | 0.047 | 0.066 | 0.057 |  |  |  |  | < 1.0 | 
5 | Percitric acid [PCA] |  |  |  |  |  |  |  |  |  | 3 to 7
